Legend:
Assay in all cases: relative viability (nuclei count vs DMSO), 5 days (fraction); higher = more cells survive
Veliparib + Crizotinib = compound: C[C@]1(c2nc3c(C(N)=O)cccc3[nH]2)CCCN1 [Veliparib] + C[C@@H](Oc1cc(-c2cnn(C3CCNCC3)c2)cnc1N)c1c(Cl)ccc(F)c1Cl [Crizotinib] (partner 1 µM)
Outline: (§1)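 Cells from lung cancer lines were seeded into 1536-well plates and, one day later, dosed by pin tool. Treatments were either a single drug or a fixed dose of an anchor drug with five library-drug doses (not always all listed) in √10 steps. After 5 days, nuclei were stained in a one-step fixation (final 0.05% Triton X-100, 1% formaldehyde, 1 ug/ml Hoechst) and counted on 4× images, and relative viability is the treated-to-vehicle nuclei ratio, as the median of duplicate plates.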

Veliparib + Navitoclax = compound: C[C@]1(c2nc3c(C(N)=O)cccc3[nH]2)CCCN1 [Veliparib] + CC1(C)CCC(c2ccc(Cl)cc2)=C(CN2CCN(c3ccc(C(=O)NS(=O)(=O)c4ccc(N[C@H](CCN5CCOCC5)CSc5ccccc5)c(S(=O)(=O)C(F)(F)F)c4)cc3)CC2)C1 [Navitoclax] (partner 0.5 µM)
Outline: as §1

[1] = compound: COC1=CC=C(C=C1)CN2C=CC3=C2C=C(C=C3)C(=O)NO + Cc1cc(Nc2cc(N3CCN(C)CC3)nc(Sc3ccc(NC(=O)C4CC4)cc3)n2)n[nH]1 [Tozasertib] (partner 0.1 µM)
Outline: as §1

Veliparib + Pemetrexed = compound: C[C@]1(c2nc3c(C(N)=O)cccc3[nH]2)CCCN1 [Veliparib] + Nc1nc2[nH]cc(CCc3ccc(C(=O)N[C@@H](CCC(=O)O)C(=O)O)cc3)c2c(=O)[nH]1 [Pemetrexed] (partner 0.2 µM)
Outline: as §1

Cell Line: LCLC-97TM1
- relative viability (Veliparib + Crizotinib; first compound 0.02 µM): 0.248
- relative viability (Veliparib + Crizotinib; first compound 0.06325 µM): 0.349
- relative viability (Veliparib + Crizotinib; first compound 0.2 µM): 0.354
- relative viability (Veliparib + Crizotinib; first compound 2 µM): 0.234
- relative viability (Veliparib + Navitoclax; first compound 0.02 µM): 0.425
- relative viability (Veliparib + Navitoclax; first compound 0.06325 µM): 0.32
- relative viability (Veliparib + Navitoclax; first compound 0.2 µM): 0.387
- relative viability (Veliparib + Navitoclax; first compound 2 µM): 0.476
- relative viability ([1]; first compound 0.08 µM): 0.16
- relative viability ([1]; first compound 0.253 µM): 0.219
- relative viability ([1]; first compound 0.8 µM): 0.193
- relative viability ([1]; first compound 2.53 µM): 0.196
- relative viability ([1]; first compound 8 µM): 0.209
- relative viability (Veliparib + Pemetrexed; first compound 0.02 µM): 0.19
- relative viability (Veliparib + Pemetrexed; first compound 0.06325 µM): 0.173
- relative viability (Veliparib + Pemetrexed; first compound 0.2 µM): 0.177
- relative viability (Veliparib + Pemetrexed; first compound 0.6325 µM): 0.141
- relative viability (Veliparib + Pemetrexed; first compound 2 µM): 0.189

Cell Line: NCI-H2170
- relative viability (Veliparib + Crizotinib; first compound 0.02 µM): 1.23
- relative viability (Veliparib + Crizotinib; first compound 0.06325 µM): 1.24
- relative viability (Veliparib + Crizotinib; first compound 0.2 µM): 1.21
- relative viability (Veliparib + Crizotinib; first compound 0.6325 µM): 1.14
- relative viability (Veliparib + Crizotinib; first compound 2 µM): 1.14
- relative viability (Veliparib + Navitoclax; first compound 0.02 µM): 0.544
- relative viability (Veliparib + Navitoclax; first compound 0.06325 µM): 0.531
- relative viability (Veliparib + Navitoclax; first compound 0.2 µM): 0.597
- relative viability (Veliparib + Navitoclax; first compound 0.6325 µM): 0.618
- relative viability (Veliparib + Navitoclax; first compound 2 µM): 0.606
- relative viability ([1]; first compound 0.08 µM): 0.439
- relative viability ([1]; first compound 0.253 µM): 0.869
- relative viability ([1]; first compound 0.8 µM): 0.694
- relative viability ([1]; first compound 2.53 µM): 0.729
- relative viability ([1]; first compound 8 µM): 0.616
- relative viability (Veliparib + Pemetrexed; first compound 0.02 µM): 0.256
- relative viability (Veliparib + Pemetrexed; first compound 0.06325 µM): 0.244
- relative viability (Veliparib + Pemetrexed; first compound 0.2 µM): 0.253
- relative viability (Veliparib + Pemetrexed; first compound 0.6325 µM): 0.237
- relative viability (Veliparib + Pemetrexed; first compound 2 µM): 0.273

Cell Line: NCI-H2085
- relative viability (Veliparib + Crizotinib; first compound 0.02 µM): 0.9
- relative viability (Veliparib + Crizotinib; first compound 0.06325 µM): 0.805
- relative viability (Veliparib + Crizotinib; first compound 0.2 µM): 0.702
- relative viability (Veliparib + Crizotinib; first compound 0.6325 µM): 0.738
- relative viability (Veliparib + Crizotinib; first compound 2 µM): 0.809
- relative viability (Veliparib + Navitoclax; first compound 0.02 µM): 1.13
- relative viability (Veliparib + Navitoclax; first compound 0.06325 µM): 0.984
- relative viability (Veliparib + Navitoclax; first compound 0.2 µM): 1.15
- relative viability (Veliparib + Navitoclax; first compound 0.6325 µM): 0.932
- relative viability (Veliparib + Navitoclax; first compound 2 µM): 1.11
- relative viability ([1]; first compound 0.08 µM): 0.859
- relative viability ([1]; first compound 0.253 µM): 0.817
- relative viability ([1]; first compound 0.8 µM): 0.96
- relative viability ([1]; first compound 2.53 µM): 0.907
- relative viability ([1]; first compound 8 µM): 0.751
- relative viability (Veliparib + Pemetrexed; first compound 0.02 µM): 0.58
- relative viability (Veliparib + Pemetrexed; first compound 0.06325 µM): 0.952
- relative viability (Veliparib + Pemetrexed; first compound 0.2 µM): 0.911
- relative viability (Veliparib + Pemetrexed; first compound 0.6325 µM): 0.875
- relative viability (Veliparib + Pemetrexed; first compound 2 µM): 0.802

Cell Line: NCI-H1666
- relative viability (Veliparib + Crizotinib; first compound 0.02 µM): 0.94
- relative viability (Veliparib + Crizotinib; first compound 0.06325 µM): 0.826
- relative viability (Veliparib + Crizotinib; first compound 0.2 µM): 1.03
- relative viability (Veliparib + Crizotinib; first compound 0.6325 µM): 0.995
- relative viability (Veliparib + Crizotinib; first compound 2 µM): 1.07
- relative viability (Veliparib + Navitoclax; first compound 0.02 µM): 1.03
- relative viability (Veliparib + Navitoclax; first compound 0.06325 µM): 0.696
- relative viability (Veliparib + Navitoclax; first compound 0.2 µM): 0.932
- relative viability (Veliparib + Navitoclax; first compound 0.6325 µM): 0.8
- relative viability (Veliparib + Navitoclax; first compound 2 µM): 1.03
- relative viability ([1]; first compound 0.08 µM): 0.498
- relative viability ([1]; first compound 0.253 µM): 0.622
- relative viability ([1]; first compound 0.8 µM): 0.571
- relative viability ([1]; first compound 2.53 µM): 0.641
- relative viability ([1]; first compound 8 µM): 0.628
- relative viability (Veliparib + Pemetrexed; first compound 0.02 µM): 0.866
- relative viability (Veliparib + Pemetrexed; first compound 0.06325 µM): 0.782
- relative viability (Veliparib + Pemetrexed; first compound 0.2 µM): 0.879
- relative viability (Veliparib + Pemetrexed; first compound 0.6325 µM): 0.866
- relative viability (Veliparib + Pemetrexed; first compound 2 µM): 0.898

Cell Line: HCC-78
- relative viability (Veliparib + Crizotinib; first compound 0.02 µM): 0.342
- relative viability (Veliparib + Crizotinib; first compound 0.06325 µM): 0.3
- relative viability (Veliparib + Crizotinib; first compound 0.2 µM): 0.409
- relative viability (Veliparib + Crizotinib; first compound 0.6325 µM): 0.383
- relative viability (Veliparib + Crizotinib; first compound 2 µM): 0.352
- relative viability (Veliparib + Navitoclax; first compound 0.02 µM): 0.892
- relative viability (Veliparib + Navitoclax; first compound 0.06325 µM): 0.77
- relative viability (Veliparib + Navitoclax; first compound 0.2 µM): 0.881
- relative viability (Veliparib + Navitoclax; first compound 0.6325 µM): 0.646
- relative viability (Veliparib + Navitoclax; first compound 2 µM): 0.648
- relative viability ([1]; first compound 0.08 µM): 0.34
- relative viability ([1]; first compound 0.253 µM): 0.329
- relative viability ([1]; first compound 0.8 µM): 0.397
- relative viability ([1]; first compound 2.53 µM): 0.395
- relative viability ([1]; first compound 8 µM): 0.38
- relative viability (Veliparib + Pemetrexed; first compound 0.02 µM): 0.909
- relative viability (Veliparib + Pemetrexed; first compound 0.06325 µM): 0.925
- relative viability (Veliparib + Pemetrexed; first compound 0.2 µM): 0.91
- relative viability (Veliparib + Pemetrexed; first compound 0.6325 µM): 0.494
- relative viability (Veliparib + Pemetrexed; first compound 2 µM): 0.853
